Measured values as given in ChEMBL document CHEMBL4371076 (J Med Chem, 2019).
Active and inactive are the calls of the source.

How the values were obtained:
[1] = Metabolic stability in rat liver microsomes assessed as parent compound remaining at 0.5 uM after 10 mins; type: ADME, Microsome; details: read-out: Stability
[2] = Metabolic stability in mouse liver microsomes assessed as parent compound remaining at 0.5 uM after 10 mins; type: ADME, Microsome; details: read-out: Stability
[3] = Fraction unbound in mouse plasma; type: ADME, cell-free
Cytochrome P450 2C8 = molecular target: T1, Cytochrome P450 2C8 (Homo sapiens, UniProt P10632); experiment: Inhibition of CYP2C8 in human liver microsomes; type: ADME
T1 sequence (P10632 whole entry): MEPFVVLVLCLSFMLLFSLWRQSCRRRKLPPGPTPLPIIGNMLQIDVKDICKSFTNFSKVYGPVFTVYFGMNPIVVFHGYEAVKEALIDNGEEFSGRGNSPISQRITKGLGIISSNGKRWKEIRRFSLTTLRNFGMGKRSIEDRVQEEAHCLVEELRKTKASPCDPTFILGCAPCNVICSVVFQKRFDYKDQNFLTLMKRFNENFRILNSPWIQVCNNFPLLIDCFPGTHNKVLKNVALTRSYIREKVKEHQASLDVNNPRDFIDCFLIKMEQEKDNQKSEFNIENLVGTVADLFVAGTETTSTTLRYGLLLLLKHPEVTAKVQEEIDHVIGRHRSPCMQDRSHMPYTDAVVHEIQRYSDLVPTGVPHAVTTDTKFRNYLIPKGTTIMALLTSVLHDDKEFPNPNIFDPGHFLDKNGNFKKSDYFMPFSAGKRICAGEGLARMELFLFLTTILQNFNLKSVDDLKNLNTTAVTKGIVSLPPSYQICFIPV

Cytochrome P450 2C19 [4] = molecular target: T2, Cytochrome P450 2C19 (Homo sapiens, UniProt P33261); experiment: Inhibition of CYP2C19 in human liver microsomes; type: ADME
Cytochrome P450 2C19 [5] = molecular target: T2, Cytochrome P450 2C19; experiment: Time-dependant inhibition of CYP2C19 in human liver microsomes; type: ADME
[6] = molecular target: Sodium channel protein type 9 subunit alpha (Mus musculus, UniProt Q62205); experiment: Inhibition of recombinant mouse Nav1.7 expressed in HEK293 cells at -70 mV holding potential by patch clamp electrophysiology method; type: cell-based
Mus musculus [7] = experiment: Analgesic activity in CD1 mouse model of formalin-induced nociception assessed as reduction in formalin-evoked paw flinching/licking response during first phase at 3 to 10 mg/kg, ip pretreated for 30 mins followed by formalin treatment and measured during first 5 mins post formalin injection; type: functional, organism-based
Mus musculus [8] = experiment: Analgesic activity in CD1 mouse model of formalin-induced nociception assessed as reduction in formalin-evoked paw flinching/licking response during second phase at 3 to 10 mg/kg, ip pretreated for 30 mins followed by formalin treatment and measured during 15 to 45 mins post formalin injection; type: functional, organism-based
Mus musculus [9] = experiment: Analgesic activity in CD1 mouse model of formalin-induced nociception assessed as reduction in formalin-evoked paw flinching/licking response during first phase at 30 mg/kg, ip pretreated for 30 mins followed by formalin treatment and measured during first 5 mins post formalin injection; type: functional, organism-based
[10] = Fraction unbound in mouse DRG neurons; type: ADME, cell-based, DRG neuron
[11] = Plasma concentration in CD1 mouse model of formalin-induced nociception at 30 mg/kg, ip; type: ADME, organism-based; details: read-out: Cp, in vivo
[12] = Drug uptake in DRG neurons of CD1 mouse model of formalin-induced nociception at 30 mg/kg, ip; type: ADME, organism-based, DRG neuron; details: in vivo, read-out: Drug uptake
[13] = Unbound drug level in DRG neurons of CD1 mouse model of formalin-induced nociception at 30 mg/kg, ip; type: ADME, organism-based, DRG neuron; details: in vivo
[14] = Fraction unbound in mouse trigeminal ganglia neuron tissue; type: ADME, tissue-based, Trigeminal ganglion
[15] = molecular target: Sodium channel protein type 2 subunit alpha (Homo sapiens, UniProt Q99250); experiment: Inhibition of human Nav1.2 expressed in HEK293 cells after 600 secs at -60 mV holding potential by ion works barracuda population patch clamp method; type: cell-based
Mus musculus [16] = experiment: Analgesic activity in CD1 mouse model of CFA-induced thermal hyperalgesia assessed as reduction in thermal response latency at 30 mg/kg, ip administered 72 hrs post CFA challenge and measured at 60 mins post dose by Hargreave's test; type: functional, organism-based
[17] = Plasma concentration in CD1 mouse model of CFA-induced thermal hyperalgesia at 3 to 30 mg/kg, ip; type: ADME, organism-based; details: in vivo
Mus musculus [18] = experiment: Antinociceptive activity in CD1 mouse model of chronic constriction injury-induced cold allodynia assessed as increase in latency in response to cold at 30 mg/kg, ip dosed 30 mins before testing starting at 5 weeks after surgery relative to control; type: functional
[19] = Plasma concentration in CD1 mouse model of chronic constriction injury-induced cold allodynia at 3 mg/kg, ip dosed at 5 weeks post surgery and measured 60 mins post dose; type: ADME, organism-based
[20] = Plasma concentration in CD1 mouse model of chronic constriction injury-induced cold allodynia at 10 mg/kg, ip dosed at 5 weeks post surgery and measured 60 mins post dose; type: ADME, organism-based
[21] = Plasma concentration in CD1 mouse model of chronic constriction injury-induced cold allodynia at 30 mg/kg, ip dosed at 5 weeks post surgery and measured 60 mins post dose; type: ADME, organism-based
[22] = Unbound plasma concentration in CD1 mouse model of chronic constriction injury-induced cold allodynia at 10 mg/kg, ip dosed at 5 weeks post surgery and measured 60 mins post dose; type: ADME, organism-based; details: in vivo, 1 h
[23] = Unbound plasma concentration in CD1 mouse model of chronic constriction injury-induced cold allodynia at 30 mg/kg, ip dosed at 5 weeks post surgery and measured 60 mins post dose; type: ADME, organism-based; details: in vivo, 1 h
Mus musculus [24] = experiment: Reduction in mechanoreceptor-mediated afferent transmission in mouse assessed as effect on sural nerve mechanosensitivity at 30 mg/kg, ip measured at 5 to 120 mins post dose at 1.6 mN threshold pressure; type: functional, organism-based
[25] = Plasma concentration in mouse model of mechanoreceptor-mediated afferent transmission at 30 mg/kg, ip after 2 hrs; type: ADME, organism-based
Mus musculus [26] = species on record: Mus musculus; experiment: Reduction in mechanoreceptor-mediated afferent transmission in mouse sural nerve assessed as decrease in mechanically elicited afferent firing at 10 to 30 uM measured at 20 mins post dose at 1.6 to 980 mN threshold pressure; type: functional, tissue-based
[27] = Ratio of fraction unbound in mouse DRG neurons to IC50 for mouse DRG Nav1.7 at -70 mV holding potential by patch clamp electrophysiology method
Mus musculus [28] = experiment: Analgesic activity in CD1 mouse model of formalin-induced nociception assessed as reduction in formalin-evoked paw flinching/licking response during first phase at 30 mg/kg, po pretreated for 30 mins followed by formalin treatment and measured during first 5 mins post formalin injection; type: functional, organism-based
[29] = Toxicity in CD1 mouse model of formalin-induced nociception assessed as hypothermia at 30 mg/kg, po; type: organism-based; details: in vivo
[30] = Unbound plasma concentration in CD1 mouse model of formalin-induced nociception at 30 mg/kg, po; type: ADME, organism-based; details: in vivo
[31] = Drug uptake in DRG neurons of CD1 mouse model of formalin-induced nociception at 30 mg/kg, po; type: ADME, organism-based, DRG neuron; details: in vivo, read-out: Drug uptake
[32] = Unbound drug level in DRG neurons of CD1 mouse model of formalin-induced nociception at 30 mg/kg, po; type: ADME, organism-based, DRG neuron; details: in vivo
[33] = Fraction unbound in rat trigeminal ganglia neuron tissue; type: ADME, tissue-based, Trigeminal ganglion
Mus musculus [34] = species on record: Mus musculus; experiment: Reduction in mechanoreceptor-mediated afferent transmission in mouse sural nerve assessed as decrease in mechanically elicited afferent firing at 30 to 100 uM measured at 20 mins post dose at 1.6 to 980 mN threshold pressure; type: functional, tissue-based

T2 sequence (P33261 whole entry): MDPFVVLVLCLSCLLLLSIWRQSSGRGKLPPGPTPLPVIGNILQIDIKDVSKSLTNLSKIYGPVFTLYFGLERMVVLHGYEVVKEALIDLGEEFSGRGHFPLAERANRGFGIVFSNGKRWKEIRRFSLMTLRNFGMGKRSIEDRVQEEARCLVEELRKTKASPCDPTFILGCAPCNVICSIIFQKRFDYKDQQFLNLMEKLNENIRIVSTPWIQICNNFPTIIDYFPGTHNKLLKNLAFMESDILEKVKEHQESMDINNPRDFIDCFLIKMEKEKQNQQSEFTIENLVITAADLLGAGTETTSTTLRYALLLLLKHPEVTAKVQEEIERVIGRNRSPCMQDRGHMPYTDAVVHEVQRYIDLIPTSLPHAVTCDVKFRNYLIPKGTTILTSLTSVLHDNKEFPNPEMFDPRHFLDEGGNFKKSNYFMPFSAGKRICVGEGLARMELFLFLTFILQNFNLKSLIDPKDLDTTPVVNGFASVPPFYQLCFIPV
Sequence of Sodium channel protein type 9 subunit alpha (Q62205 whole entry): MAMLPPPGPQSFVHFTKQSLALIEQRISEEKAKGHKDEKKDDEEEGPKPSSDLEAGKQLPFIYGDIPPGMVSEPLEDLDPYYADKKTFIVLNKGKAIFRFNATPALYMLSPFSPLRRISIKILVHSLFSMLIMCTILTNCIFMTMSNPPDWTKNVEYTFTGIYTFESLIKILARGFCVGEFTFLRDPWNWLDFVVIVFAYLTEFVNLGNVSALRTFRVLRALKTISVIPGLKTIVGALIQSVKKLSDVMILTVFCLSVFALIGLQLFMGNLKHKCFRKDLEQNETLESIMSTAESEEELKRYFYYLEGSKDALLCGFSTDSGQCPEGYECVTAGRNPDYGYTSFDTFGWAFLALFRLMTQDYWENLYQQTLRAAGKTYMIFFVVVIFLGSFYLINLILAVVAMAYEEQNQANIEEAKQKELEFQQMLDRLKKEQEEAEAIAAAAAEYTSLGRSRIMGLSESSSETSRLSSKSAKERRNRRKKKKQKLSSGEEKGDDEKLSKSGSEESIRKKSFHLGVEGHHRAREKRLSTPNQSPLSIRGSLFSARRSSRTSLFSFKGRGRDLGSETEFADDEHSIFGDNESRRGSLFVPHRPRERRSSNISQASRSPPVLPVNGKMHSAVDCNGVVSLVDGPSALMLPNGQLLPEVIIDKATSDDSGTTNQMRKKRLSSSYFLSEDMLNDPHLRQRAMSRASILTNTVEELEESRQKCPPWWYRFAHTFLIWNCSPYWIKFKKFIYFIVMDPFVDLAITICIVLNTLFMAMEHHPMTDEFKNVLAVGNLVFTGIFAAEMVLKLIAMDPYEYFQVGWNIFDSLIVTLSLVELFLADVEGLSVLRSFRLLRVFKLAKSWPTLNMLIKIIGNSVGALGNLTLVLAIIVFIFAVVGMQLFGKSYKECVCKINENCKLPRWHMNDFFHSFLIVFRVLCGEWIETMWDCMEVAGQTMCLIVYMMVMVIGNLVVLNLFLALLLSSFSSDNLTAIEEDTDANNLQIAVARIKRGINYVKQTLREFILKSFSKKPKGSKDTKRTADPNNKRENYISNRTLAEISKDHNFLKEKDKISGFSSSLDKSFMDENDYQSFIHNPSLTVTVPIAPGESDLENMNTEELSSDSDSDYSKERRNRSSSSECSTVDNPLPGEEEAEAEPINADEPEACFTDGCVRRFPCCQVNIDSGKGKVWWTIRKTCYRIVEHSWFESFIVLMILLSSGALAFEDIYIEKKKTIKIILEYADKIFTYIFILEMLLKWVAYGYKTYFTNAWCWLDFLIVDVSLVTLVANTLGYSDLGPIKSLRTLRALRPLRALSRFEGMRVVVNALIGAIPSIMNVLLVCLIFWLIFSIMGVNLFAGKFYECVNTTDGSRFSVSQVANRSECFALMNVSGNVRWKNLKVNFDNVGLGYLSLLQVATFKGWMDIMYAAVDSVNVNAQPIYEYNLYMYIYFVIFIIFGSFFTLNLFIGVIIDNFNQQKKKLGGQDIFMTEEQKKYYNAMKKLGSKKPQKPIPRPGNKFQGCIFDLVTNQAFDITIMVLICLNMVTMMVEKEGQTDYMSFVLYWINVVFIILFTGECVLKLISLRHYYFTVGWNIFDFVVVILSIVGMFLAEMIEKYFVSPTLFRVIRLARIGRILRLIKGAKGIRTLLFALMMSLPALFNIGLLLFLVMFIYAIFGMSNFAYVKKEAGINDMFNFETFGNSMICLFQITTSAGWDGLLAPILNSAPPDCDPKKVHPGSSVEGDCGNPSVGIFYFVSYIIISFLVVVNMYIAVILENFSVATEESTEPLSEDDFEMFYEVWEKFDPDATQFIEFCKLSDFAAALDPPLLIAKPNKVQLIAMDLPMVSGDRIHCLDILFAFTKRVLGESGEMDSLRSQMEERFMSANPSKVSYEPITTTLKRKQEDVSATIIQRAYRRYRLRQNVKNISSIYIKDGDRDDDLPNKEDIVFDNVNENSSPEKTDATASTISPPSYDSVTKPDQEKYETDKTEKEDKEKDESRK
Sequence of Sodium channel protein type 2 subunit alpha (Q99250 whole entry): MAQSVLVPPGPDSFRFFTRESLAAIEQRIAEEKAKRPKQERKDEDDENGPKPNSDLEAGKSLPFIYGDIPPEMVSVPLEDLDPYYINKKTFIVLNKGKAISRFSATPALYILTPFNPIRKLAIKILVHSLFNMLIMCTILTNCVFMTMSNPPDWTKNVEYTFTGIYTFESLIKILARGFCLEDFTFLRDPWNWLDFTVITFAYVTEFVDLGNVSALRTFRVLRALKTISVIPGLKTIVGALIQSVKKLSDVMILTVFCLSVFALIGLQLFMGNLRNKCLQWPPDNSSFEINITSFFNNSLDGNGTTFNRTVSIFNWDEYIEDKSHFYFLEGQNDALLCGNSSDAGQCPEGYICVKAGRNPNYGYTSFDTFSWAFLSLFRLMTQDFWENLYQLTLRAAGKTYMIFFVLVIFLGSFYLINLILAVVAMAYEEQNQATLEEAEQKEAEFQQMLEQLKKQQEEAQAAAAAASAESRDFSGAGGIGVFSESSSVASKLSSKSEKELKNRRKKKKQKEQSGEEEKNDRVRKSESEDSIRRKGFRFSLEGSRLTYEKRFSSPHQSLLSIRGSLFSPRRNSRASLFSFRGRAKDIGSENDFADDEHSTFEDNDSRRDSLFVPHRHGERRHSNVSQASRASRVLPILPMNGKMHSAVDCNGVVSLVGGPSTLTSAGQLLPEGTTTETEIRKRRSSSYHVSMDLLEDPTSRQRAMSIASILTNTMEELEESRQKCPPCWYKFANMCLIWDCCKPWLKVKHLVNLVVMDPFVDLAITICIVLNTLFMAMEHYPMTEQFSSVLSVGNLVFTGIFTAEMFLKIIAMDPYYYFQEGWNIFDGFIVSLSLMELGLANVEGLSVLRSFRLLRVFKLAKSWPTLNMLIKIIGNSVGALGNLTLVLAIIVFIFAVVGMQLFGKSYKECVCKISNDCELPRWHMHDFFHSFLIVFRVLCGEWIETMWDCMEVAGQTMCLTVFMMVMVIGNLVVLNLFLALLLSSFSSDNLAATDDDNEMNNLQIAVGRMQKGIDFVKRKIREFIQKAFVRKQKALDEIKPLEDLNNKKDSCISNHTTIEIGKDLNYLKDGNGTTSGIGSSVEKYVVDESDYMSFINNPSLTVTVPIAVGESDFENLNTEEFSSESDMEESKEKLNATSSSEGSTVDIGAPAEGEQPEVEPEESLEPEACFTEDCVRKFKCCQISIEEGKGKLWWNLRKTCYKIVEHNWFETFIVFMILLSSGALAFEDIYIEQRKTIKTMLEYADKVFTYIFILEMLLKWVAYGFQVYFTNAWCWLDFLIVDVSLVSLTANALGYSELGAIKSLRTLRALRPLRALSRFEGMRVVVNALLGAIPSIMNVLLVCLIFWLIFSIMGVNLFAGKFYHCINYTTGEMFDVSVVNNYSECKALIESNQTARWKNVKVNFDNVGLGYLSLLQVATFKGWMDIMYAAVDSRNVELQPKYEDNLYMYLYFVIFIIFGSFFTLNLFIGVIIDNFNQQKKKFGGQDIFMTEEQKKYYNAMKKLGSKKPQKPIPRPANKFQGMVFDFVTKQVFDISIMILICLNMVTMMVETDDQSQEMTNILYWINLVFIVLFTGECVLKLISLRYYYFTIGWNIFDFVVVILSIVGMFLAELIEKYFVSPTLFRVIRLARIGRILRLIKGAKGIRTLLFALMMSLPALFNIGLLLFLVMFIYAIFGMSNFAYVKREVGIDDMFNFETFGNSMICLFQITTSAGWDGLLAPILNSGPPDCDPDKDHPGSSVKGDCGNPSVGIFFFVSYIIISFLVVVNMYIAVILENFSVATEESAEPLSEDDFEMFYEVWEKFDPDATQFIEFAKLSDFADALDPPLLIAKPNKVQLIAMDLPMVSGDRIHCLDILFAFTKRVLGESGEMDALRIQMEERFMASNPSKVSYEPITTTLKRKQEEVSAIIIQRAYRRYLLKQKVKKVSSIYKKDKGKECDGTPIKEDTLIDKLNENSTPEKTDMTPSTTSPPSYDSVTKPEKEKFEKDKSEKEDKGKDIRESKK

SMILES	remaining at 10 min, 0.5 µM [1]	remaining at 10 min, 0.5 µM [2]	fraction unbound [3]	IC50 (Cytochrome P450 2C8)	IC50 (Cytochrome P450 2C19 [4])	TDI (Cytochrome P450 2C19 [5])	IC50 [6]	fraction unbound [10]	fraction unbound [14]	Activity (Mus musculus [16])	concentration [17]	Activity (Mus musculus [24])	concentration at 2 h [25]	Ratio [27]	further results
CC(C)COc1ncc(-c2cn(C)c3cc(C(=O)NS(C)(=O)=O)ccc23)cc1Cl	66%	100%	0.002	1000 nM	28000 nM	Not Active	35 nM	0.035	0.035	Active	63 µM	inactive	89 µM	8.7	Activity (Mus musculus [7]): inactive; Activity (Mus musculus [8]): inactive; Activity (Mus musculus [9]): inactive; concentration [11]: 59 µM; concentration [12]: 2.72 µM; Drug uptake(free) [13]: 95 nM; IC50 [15]: 16000 nM; Activity (Mus musculus [18]): 25%; concentration at 1 h [19]: 3.3 µM; concentration at 1 h [20]: 27 µM; concentration at 1 h [21]: 68 µM; Cp(f) [22]: 0.054 µM; Cp(f) [23]: 0.136 µM; Activity (Mus musculus [26]): Active
CC(C)COc1ccc(-c2cn(C)c3cc(C(=O)NS(C)(=O)=O)c(F)cc23)cn1	98%	99%	0.014	1000 nM	4000 nM	Not Active	115 nM	0.085	0.069	inactive	38 µM	inactive	57 µM	5.5	Activity (Mus musculus [28]): inactive; Activity [29]: Non-Toxic; Cp(f) [30]: 0.616 µM; concentration [31]: 0.99 µM; Drug uptake(free) [32]: 84 nM; fraction unbound [33]: 0.045; Activity (Mus musculus [34]): inactive
